{
  "source": "patent US11999716B2",
  "about": "“WDR5 inhibitors and modulators” (priority 2018, dated 2024)",
  "system": "MV4:11 human cancer cell lines",
  "assay": "Cellular viability / anti-proliferative activity, CellTiter-Glo, 5 day protocol",
  "format": "cell-based",
  "conditions": "Homo sapiens, MV4-11, 120 h, MV4:11 cells; 5 day incubation; CellTiter-Glo; mean of minimum two replicates; read-out: GI50 on cellular proliferation of MV4:11 human cancer cell lines",
  "protocol": "Cellular Viability of Human Tumor Cell Lines\nAnti proliferative activity using MLL-harboring cell lines. […] Viability assays are performed by dispensing 200 cells at 7200 cells/mL into each well of an opaque 384-well plate and adding compounds at the indicated concentrations in a final volume of 32 μL and a final concentration of DMSO of 0.3% for all samples. A certain range of compound concentrations is made through a series of 2-fold dilutions starting 30 μM at the highest, total 22 dilutions. After a set incubation period, 5 day protocol, the viability of cells in each well is assessed using the CellTiter-Glo assay (Promega), read on a 96 Microplane Luminometer (Cytation 3, BioTek). Serial dilutions of each cell type are performed in all assays to generate standard curves and the final densities of cells are determined within the dynamic range of the instrument. GI50 values are calculated based on XLfit software (IDBS, Guildford, UK) with Sigmoidal Dose-Response Model. Each compound is tested in minimum of two replicates. Data are expressed as mean.",
  "data": [
    {"smiles": "Cc1cc(CN2CCc3c(cc(Cn4ccn(C)c4=N)cc3-c3ccc(F)cc3C)C2=O)ccc1F", "note": "[Example 31, 5-(4-Fluoro-2-methylphenyl)-2-(4-fluoro-3-methylbenzyl)-7-((2-imino-3-methyl-2,3-dihydro-1H-imidazol-1-yl)methyl)-3,4-dihydroisoquinolin-1(2H)-one]", "values": [
      {"measurement": "GI50", "result": "< 50", "unit": "nM"}
    ]},
    {"smiles": "Cc1cc([C@H](C2CC2)N2CCc3c(cc(Cn4ccn(C)c4=N)cc3-c3ccc(F)cc3C)C2=O)ccc1F", "note": "[Example 32, (S)-2-(Cyclopropyl(4-fluoro-3-methylphenyl)methyl)-5-(4-fluoro-2-methylphenyl)-7-((2-imino-3-methyl-2,3-dihydro-1H-imidazol-1-yl)methyl)-3,4-dihydroisoquinolin-1(2H)-one]", "values": [
      {"measurement": "GI50", "result": 64, "unit": "nM"}
    ]},
    {"smiles": "Cc1ccnc([C@@H](C2CC2)N2CCc3c(cc(Cn4ccn(C)c4=N)cc3-c3ccc(F)cc3C)C2=O)c1", "note": "[Example 33, (R)-2-(Cyclopropyl(4-methylpyridin-2-yl)methyl)-5-(4-fluoro-2-methylphenyl)-7-((2-imino-3-methyl-2,3-dihydro-1H-imidazol-1-yl)methyl)-3,4-dihydroisoquinolin-1(2H)-one]", "values": [
      {"measurement": "GI50", "result": 553, "unit": "nM"}
    ]},
    {"smiles": "Cc1cc([C@H](C2CC2)N2CCc3c(cc(Cn4ccn(C)c4=N)cc3-c3cccnc3C(F)(F)F)C2=O)ccc1F", "note": "[Example 34, (S)-2-(Cyclopropyl(4-fluoro-3-methylphenyl)methyl)-7-((2-imino-3-methyl-2,3-dihydro-1H-imidazol-1-yl)methyl)-5-(2-(trifluoromethyl)pyridin-3-yl)-3,4-dihydroisoquinolin-1(2H)-one]", "values": [
      {"measurement": "GI50", "result": 215, "unit": "nM"}
    ]},
    {"smiles": "COc1cc(CN2CCc3c(cc(Cn4ccn(C)c4=N)cc3-c3cccnc3C(F)(F)F)C2=O)cc(OC)c1", "note": "[Example 35, 2-(3,5-Dimethoxybenzyl)-7-((2-imino-3-methyl-2,3-dihydro-1H-imidazol-1-yl)methyl)-5-(2-(trifluoromethyl)pyridin-3-yl)-3,4-dihydroisoquinolin-1(2H)-one]", "values": [
      {"measurement": "GI50", "result": 143, "unit": "nM"}
    ]},
    {"smiles": "Cc1ccnc([C@H](C2CC2)N2CCc3c(cc(Cn4ccn(C)c4=N)cc3-c3cccnc3C(F)(F)F)C2=O)c1", "note": "[Example 36, (S)-2-(Cyclopropyl(4-methylpyridin-2-yl)methyl)-7-((2-imino-3-methyl-2,3-dihydro-1H-imidazol-1-yl)methyl)-5-(2-(trifluoromethyl)pyridin-3-yl)-3,4-dihydroisoquinolin-1(2H)-one]", "values": [
      {"measurement": "GI50", "result": 201, "unit": "nM"}
    ]},
    {"smiles": "Cc1ccnc([C@H](C2CC2)N2CCc3c(cc(Cn4ccn(C)c4=N)cc3-c3ccc(F)cc3C)C2=O)c1", "note": "[Example 37, (S)-2-(Cyclopropyl(4-methylpyridin-2-yl)methyl)-5-(4-fluoro-2-methylphenyl)-7-((2-imino-3-methyl-2,3-dihydro-1H-imidazol-1-yl)methyl)-3,4-dihydroisoquinolin-1(2H)-one]", "values": [
      {"measurement": "GI50", "result": "< 50", "unit": "nM"}
    ]},
    {"smiles": "COc1cc(CN2CCc3c(cc(Cn4ccn(C5CC5)c4=N)cc3-c3ccc(F)cc3C)C2=O)cc(OC)c1", "note": "[Example 38, 7-((3-Cyclopropyl-2-imino-2,3-dihydro-1H-imidazol-1-yl)methyl)-2-(3,5-dimethoxybenzyl)-5-(4-fluoro-2-methylphenyl)-3,4-dihydroisoquinolin-1(2H)-one]", "values": [
      {"measurement": "GI50", "result": 95, "unit": "nM"}
    ]},
    {"smiles": "COc1cc(CN2CCc3c(cc(Cn4ccn(C)c4=N)cc3-c3cn(C)nc3C(F)(F)F)C2=O)cc(OC)c1", "note": "[Example 39, 2-(3,5-Dimethoxybenzyl)-7-((2-imino-3-methyl-2,3-dihydro-1H-imidazol-1-yl)methyl)-5-(1-methyl-3-(trifluoromethyl)-1H-pyrazol-4-yl)-3,4-dihydroisoquinolin-1(2H)-one]", "values": [
      {"measurement": "GI50", "result": "< 50", "unit": "nM"}
    ]},
    {"smiles": "Cc1cc([C@H](C)N2CCc3c(cc(Cn4ccn(C)c4=N)cc3-c3ccc(F)cc3C)C2=O)ccc1F", "note": "[Example 40, (S)-5-(4-Fluoro-2-methylphenyl)-2-(1-(4-fluoro-3-methylphenyl)ethyl)-7-((2-imino-3-methyl-2,3-dihydro-1H-imidazol-1-yl)methyl)-3,4-dihydroisoquinolin-1(2H)-one]", "values": [
      {"measurement": "GI50", "result": "< 50", "unit": "nM"}
    ]},
    {"smiles": "COc1ccnc(CN2CCc3c(cc(Cn4ccn(C)c4=N)cc3-c3cn(C)nc3C(F)(F)F)C2=O)c1", "note": "[Example 41, 7-((2-Imino-3-methyl-2,3-dihydro-1H-imidazol-1-yl)methyl)-2-((4-methoxypyridin-2-yl)methyl)-5-(1-methyl-3-(trifluoromethyl)-1H-pyrazol-4-yl)-3,4-dihydroisoquinolin-1(2H)-one]", "values": [
      {"measurement": "GI50", "result": 64, "unit": "nM"}
    ]},
    {"smiles": "COc1ccnc(CN2CCc3c(cc(Cn4ccn(C)c4=N)cc3-c3cn(C)nc3C)C2=O)c1", "note": "[Example 42, 5-(1,3-Dimethyl-1H-pyrazol-4-yl)-7-((2-imino-3-methyl-2,3-dihydro-1H-imidazol-1-yl)methyl)-2-((4-methoxypyridin-2-yl)methyl)-3,4-dihydroisoquinolin-1(2H)-one]", "values": [
      {"measurement": "GI50", "result": 291, "unit": "nM"}
    ]},
    {"smiles": "COc1ccnc(CN2CCc3c(cc(CN4CCN(C)C4=N)cc3-c3cn(C)nc3C(F)(F)F)C2=O)c1", "note": "[Example 43, 7-((2-Imino-3-methylimidazolidin-1-yl)methyl)-2-((4-methoxypyridin-2-yl)methyl)-5-(1-methyl-3-(trifluoromethyl)-1H-pyrazol-4-yl)-3,4-dihydroisoquinolin-1(2H)-one]", "values": [
      {"measurement": "GI50", "result": "< 50", "unit": "nM"}
    ]},
    {"smiles": "COc1ccnc(CN2CCc3c(cc(CN4CCN(C5CC5)C4=N)cc3-c3cn(C)nc3C(F)(F)F)C2=O)c1", "note": "[Example 44, 7-((3-Cyclopropyl-2-iminoimidazolidin-1-yl)methyl)-2-((4-methoxypyridin-2-yl)methyl)-5-(1-methyl-3-(trifluoromethyl)-1H-pyrazol-4-yl)-3,4-dihydroisoquinolin-1(2H)-one]", "values": [
      {"measurement": "GI50", "result": "< 50", "unit": "nM"}
    ]},
    {"smiles": "COc1ccnc(CN2CCc3c(cc(Cn4ccn(C5CC5)c4=N)cc3-c3cn(C)nc3C(F)(F)F)C2=O)c1", "note": "[Example 45, 7-((3-Cyclopropyl-2-imino-2,3-dihydro-1H-imidazol-1-yl)methyl)-2-((4-methoxypyridin-2-yl)methyl)-5-(1-methyl-3-(trifluoromethyl)-1H-pyrazol-4-yl)-3,4-dihydroisoquinolin-1(2H)-one]", "values": [
      {"measurement": "GI50", "result": 113, "unit": "nM"}
    ]},
    {"smiles": "COc1ccnc(CN2CCc3c(cc(CN4CCN(C5CC5)C4=N)cc3-c3cn(C)nc3C)C2=O)c1", "note": "[Example 46, 7-((3-Cyclopropyl-2-iminoimidazolidin-1-yl)methyl)-5-(1,3-dimethyl-1H-pyrazol-4-yl)-2-((4-methoxypyridin-2-yl)methyl)-3,4-dihydroisoquinolin-1(2H)-one]", "values": [
      {"measurement": "GI50", "result": 449, "unit": "nM"}
    ]},
    {"smiles": "COc1ccnc(CN2CCc3c(cc(CN4CCN(C)C4=N)cc3-c3cn(C)nc3C)C2=O)c1", "note": "[Example 47, 5-(1,3-Dimethyl-1H-pyrazol-4-yl)-7-((2-imino-3-methylimidazolidin-1-yl)methyl)-2-((4-methoxypyridin-2-yl)methyl)-3,4-dihydroisoquinolin-1(2H)-one]", "values": [
      {"measurement": "GI50", "result": 165, "unit": "nM"}
    ]},
    {"smiles": "COc1ccnc(CN2CCc3c(cc(Cn4ccn(C5CC5)c4=N)cc3-c3cn(C)nc3C)C2=O)c1", "note": "[Example 48]", "values": [
      {"measurement": "GI50", "result": 423, "unit": "nM"}
    ]},
    {"smiles": "CCn1cc(-c2cc(Cn3ccn(C)c3=N)cc3c2CCN(Cc2cc(OC)ccn2)C3=O)cn1", "note": "[Example 49, 5-(1-Ethyl-1H-pyrazol-4-yl)-7-((2-imino-3-methyl-2,3-dihydro-1H-imidazol-1-yl)methyl)-2-((4-methoxypyridin-2-yl)methyl)-3,4-dihydroisoquinolin-1(2H)-one]", "values": [
      {"measurement": "GI50", "result": 906, "unit": "nM"}
    ]},
    {"smiles": "CCn1cc(-c2cc(Cn3ccn(C4CC4)c3=N)cc3c2CCN(Cc2cc(OC)ccn2)C3=O)cn1", "note": "[Example 50, 7-((3-Cyclopropyl-2-imino-2,3-dihydro-1H-imidazol-1-yl)methyl)-5-(1-ethyl-1H-pyrazol-4-yl)-2-((4-methoxypyridin-2-yl)methyl)-3,4-dihydroisoquinolin-1(2H)-one]", "values": [
      {"measurement": "GI50", "result": "> 938", "unit": "nM"}
    ]},
    {"smiles": "Cc1ccnc(CN2CCc3c(cc(Cn4ccn(C5CC5)c4=N)cc3-c3cn(C)nc3C(F)(F)F)C2=O)c1", "note": "[Example 51, 7-((3-Cyclopropyl-2-imino-2,3-dihydro-1H-imidazol-1-yl)methyl)-5-(1-methyl-3-(trifluoromethyl)-1H-pyrazol-4-yl)-2-((4-methylpyridin-2-yl)methyl)-3,4-dihydroisoquinolin-1(2H)-one]", "values": [
      {"measurement": "GI50", "result": "< 50", "unit": "nM"}
    ]},
    {"smiles": "COc1ccnc(CN2CCc3c(cc(Cn4ccn(C)c4=N)cc3-c3ccc(F)cc3C)C2=O)c1", "note": "[Example 52, 5-(4-fluoro-2-methylphenyl)-7-((2-imino-3-methyl-2,3-dihydro-1H-imidazol-1-yl)methyl)-2-((4-methoxypyridin-2-yl)methyl)-3,4-dihydroisoquinolin-1(2H)-one]", "values": [
      {"measurement": "GI50", "result": "< 50", "unit": "nM"}
    ]},
    {"smiles": "Cc1ccnc(CN2CCc3c(cc(Cn4ccn(C)c4=N)cc3-c3cn(C)nc3C(F)(F)F)C2=O)c1", "note": "[Example 53, 7-((2-Imino-3-methyl-2,3-dihydro-1H-imidazol-1-yl)methyl)-5-(1-methyl-3-(trifluoromethyl)-1H-pyrazol-4-yl)-2-((4-methylpyridin-2-yl)methyl)-3,4-dihydroisoquinolin-1(2H)-one]", "values": [
      {"measurement": "GI50", "result": "< 50", "unit": "nM"}
    ]},
    {"smiles": "COc1ccnc(CN2CCc3c(cc(Cn4ccn(C)c4=N)cc3C3CC3)C2=O)c1", "note": "[Example 54, 5-Cyclopropyl-7-((2-imino-3-methyl-2,3-dihydro-1H-imidazol-1-yl)methyl)-2-((4-methoxypyridin-2-yl)methyl)-3,4-dihydroisoquinolin-1(2H)-one]", "values": [
      {"measurement": "GI50", "result": 880, "unit": "nM"}
    ]},
    {"smiles": "CCn1cc(-c2cc(CN3CCN(C)C3=N)cc3c2CCN(Cc2cc(OC)ccn2)C3=O)c(C(F)(F)F)n1", "note": "[Example 55, 5-(1-Ethyl-3-(trifluoromethyl)-1H-pyrazol-4-yl)-7-((2-imino-3-methylimidazolidin-1-yl)methyl)-2-((4-methoxypyridin-2-yl)methyl)-3,4-dihydroisoquinolin-1(2H)-one]", "values": [
      {"measurement": "GI50", "result": "< 50", "unit": "nM"}
    ]}
  ]
}
